Results reported in patent publication US6617312B1, “Vasoactive amine binding molecules” (Oxford Vacs Ltd., priority 1996, dated 2003).

Tests used:
[1] = molecular target: Rhipicephalus appendiculatus FS-HBP2 (SEQ ID NO: 18) truncated version lacking the 45 N-terminal amino acids, bacterially expressed (Rhipicephalus appendiculatus, UniProt O77421)
[2] = molecular target: T1, Rhipicephalus appendiculatus rFS-HBP1, His6-tagged, expressed in Spodoptera frugiperda Sf21 cells (baculovirus), SEQ ID NO: 16 (Rhipicephalus appendiculatus, UniProt O77420); test: Histamine binding assay (radiolabelled histamine, PEG precipitation, Scatchard), rFS-HBP1
T1 construct: Gly-Ile-(His)6 (C); made in house; host or cells: Spodoptera frugiperda Sf21 cells (baculovirus BacPak6)
Method: (§1) Construction of clones. FS-HBP1, FS-HBP2 and MS-HBP1 were expressed as histidine-tagged proteins (rFS-HBP1, rFS-HBP2 and rMS-HBP1) in Spodoptera frugiperda ovarian cells (Sf21).
In order to append the His6 tag, the coding region of FS-HBP1 was first amplified using the polymerase chain reaction (PCR). […] The forward primer used was: 5′-[…] (SEQ ID NO:3); the reverse primer was: 5′-[…] (SEQ ID NO:4). The primers were designed so that a SacI site was added upstream of the start codon, whilst the stop codon was replaced by a BamHI site, followed by 6 histidine codons and an SpeI site comprising a TAG stop codon. The PCR product was cut with SacI and SpeI. The latter enzyme creates a compatible overhang with XbaI, enabling the fragment to be ligated between the SacI and XbaI sites of the pAcC129.1 transfer vector (Livingstone and Jones (1989) Nucleic Acids Res. 17:2366), generating the plasmid pACC129.1-FS1.HIS. This plasmid therefore contained the sequence Gly-Ile-(His)6 appended to the carboxy terminus of the FS-HBP1 translation product.
(§2) The baculovirus expression system was used for expression of the three tagged polypeptides. Spodoptera (Sf21) cells were transfected with the transfer vectors and baculovirus (BacPak6; Clontech). Recombinant virus was amplified as according to Kitts and Possee (1993) BioTechniques 14:810-817). […]

[3] = molecular target: Rhipicephalus appendiculatus FS-HBP2 (SEQ ID NO: 18) truncated version lacking the 28 C-terminal amino acids, bacterially expressed (Rhipicephalus appendiculatus, UniProt O77421)
[4] = test system: rVABPs; test: Competition experiment: displacement of 3H-histamine from rVABPs by histamine-like compounds; conditions: cold histamine, reference amount
[5] = molecular target: Rhipicephalus appendiculatus rMS-HBP1, His6-tagged, SEQ ID NO: 20 (Rhipicephalus appendiculatus, UniProt O77422); conditions: ^3H-histamine ~0.3 pmol (11,200 cpm), rMS-HBP1 ~100 pmol, 5 measurements
[6] = molecular target: T2, Rhipicephalus appendiculatus rFS-HBP2, His6-tagged, expressed in Spodoptera frugiperda Sf21 cells (baculovirus), SEQ ID NO: 18 (Rhipicephalus appendiculatus, UniProt O77421); test: Histamine binding assay (radiolabelled histamine, PEG precipitation, Scatchard), rFS-HBP2
T2 construct: Ile-(His)6 (C); made in house; host or cells: Spodoptera frugiperda Sf21 cells (baculovirus BacPak6)
Method: as §1
(§3) This plasmid pACC129.1-FS1.HIS was also used for expression of histidine-tagged FS-HBP2 and MS-HBP1. The FS-HBP1 cDNA was deleted using SacI and BamHI thus leaving the histidine codons intact. An upstream SacI and a downstream BglII site (BglII and BamHI create compatible overhangs) were added to the FS-HBP2 and MS-HBP1 coding regions by PCR. […] The forward primer, in the case of FS-HBP2 was: 5′-[…] (SEQ ID NO:5); the reverse primer was: 5′-[…] (SEQ ID NO:6). In the case of MS-HBP1 the forward primer was: 5′-[…] (SEQ ID NO:7), and the reverse primer was: 5′-[…] (SEQ ID NO:8).
(§4) Following PCR, the derived cDNAs were inserted into the vector. A Gln-Ile-(HIS)6 sequence was thus added to the carboxyterminus of the MS-HBP1 translation product, and Ile-(His)6 to the FS-HBP2 translation product.
as §2, with “14:810-817). The VABPs are clearly secretion products since they are mainly found in the culture medium of transfected cells as well as in saliva.” for “14:810-817).”

[7] = molecular target: T3, Rhipicephalus appendiculatus rMS-HBP1, His6-tagged, expressed in Spodoptera frugiperda Sf21 cells (baculovirus), SEQ ID NO: 20 (Rhipicephalus appendiculatus, UniProt O77422); test: Histamine binding assay (radiolabelled histamine, PEG precipitation, Scatchard), rMS-HBP1
T3 construct: Gln-Ile-(His)6 (C); made in house; host or cells: Spodoptera frugiperda Sf21 cells (baculovirus BacPak6)
Method: as §1, §3, §4
as §2, with “14:810-817). The VABPs are clearly secretion products since they are mainly found in the culture medium of transfected cells as well as in saliva.” for “14:810-817).”

Sequence of Rhipicephalus appendiculatus rMS-HBP1, His6-tagged, SEQ ID NO: 20 (O77422 19-200): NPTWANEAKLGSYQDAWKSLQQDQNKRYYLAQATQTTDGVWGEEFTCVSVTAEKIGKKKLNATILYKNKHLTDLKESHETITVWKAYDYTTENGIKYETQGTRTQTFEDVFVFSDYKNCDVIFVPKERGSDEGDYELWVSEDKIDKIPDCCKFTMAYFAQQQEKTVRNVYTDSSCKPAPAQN
T1 sequence (O77420 19-190, added parts left off): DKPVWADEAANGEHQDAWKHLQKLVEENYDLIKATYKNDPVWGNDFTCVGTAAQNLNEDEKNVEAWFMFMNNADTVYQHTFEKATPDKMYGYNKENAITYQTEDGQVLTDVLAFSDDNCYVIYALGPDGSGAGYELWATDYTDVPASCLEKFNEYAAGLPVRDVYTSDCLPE
T2 sequence (O77421 20-190, added parts left off): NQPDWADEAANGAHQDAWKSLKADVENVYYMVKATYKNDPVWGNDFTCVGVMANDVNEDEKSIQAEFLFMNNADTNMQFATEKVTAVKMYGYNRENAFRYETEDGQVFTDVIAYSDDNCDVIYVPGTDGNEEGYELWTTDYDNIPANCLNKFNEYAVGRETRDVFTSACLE
Sequence of Rhipicephalus appendiculatus FS-HBP2 (SEQ ID NO: 18) truncated version lacking the 28 C-terminal amino acids, bacterially expressed (O77421 20-162): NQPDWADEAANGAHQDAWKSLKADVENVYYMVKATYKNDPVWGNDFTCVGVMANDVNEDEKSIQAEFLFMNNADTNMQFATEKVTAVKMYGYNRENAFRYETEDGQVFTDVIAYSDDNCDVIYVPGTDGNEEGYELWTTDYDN
Sequence of Rhipicephalus appendiculatus FS-HBP2 (SEQ ID NO: 18) truncated version lacking the 45 N-terminal amino acids, bacterially expressed (O77421 65-190): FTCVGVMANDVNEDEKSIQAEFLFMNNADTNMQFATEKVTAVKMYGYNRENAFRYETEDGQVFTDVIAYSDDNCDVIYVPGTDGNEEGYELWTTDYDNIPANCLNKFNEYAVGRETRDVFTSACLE
T3 sequence (O77422 19-200, added parts left off): as the sequence (O77422 19-200) above

NCCc1c[nH]cn1 [histamine]
binding to histamine [1]: do not bind to histamine at all | Kd [2]: 78 nM | binding to histamine [3]: do not bind to histamine at all | displacement of ^3H-histamine from the binding sites [4]: more than 95% | bound radioligand, supplemented with histamine ([5]; plus histamine 0.5 pmol): 7,560±110 cpm | Kd [6]: 1.7 nM | Kd [7]: 1.2 nM

NCCc1c[nH]cn1 [^3H-histamine]
bound radioligand, without added histamine [5]: 6,840±150 cpm
